Columns and labels:
Rattus norvegicus [1] = species: Rattus norvegicus; experiment: Compound tested for inhibitory activity against [3H]dopamine uptake in synaptosomes from rat caudate nucleus; parameters: species or system Brain
Rattus norvegicus [2] = species: Rattus norvegicus; experiment: Binding affinity against [3H]mazindol
Rattus norvegicus [3] = species: Rattus norvegicus; experiment: Effect on cocaine inhibition of [3H]dopamine uptake
Rattus norvegicus [4] = species: Rattus norvegicus; experiment: Effect on cocaine inhibition of [3H]dopamine uptake at 50 uM
Rattus norvegicus [5] = species: Rattus norvegicus; experiment: Effect on cocaine inhibition of [3H]dopamine uptake at 200 uM
Rattus norvegicus [6] = species: Rattus norvegicus; experiment: Effect on cocaine inhibition of [3H]-dopamine uptake at 500 uM

Row | Structure (SMILES) | Ki (Rattus norvegicus [1]) | Ki (Rattus norvegicus [2]) | IC50 (Rattus norvegicus [3]) | IC50 (Rattus norvegicus [4]) | IC50 (Rattus norvegicus [5]) | IC50 (Rattus norvegicus [6])
1 | COC(=O)[C@@H]1C2[C@H](OC)C[C@H](C[C@@H]1OC(=O)c1ccccc1)N2C (mixture of isomers) | 6.1 µM | 4.2 µM |  |  |  | 
2 | COC(=O)[C@H]1C2CCC(C[C@@H]1OC(=O)c1ccccc1)N2 (stereo partly drawn) [PSEUDOCOCAINE] | 13.8 µM | 10.4 µM |  |  |  | 
3 | COC(=O)[C@H]1C2[C@H](OC)C[C@H](C[C@@H]1OC(=O)c1ccccc1)N2C (mixture of isomers) | 110 µM | 45 µM |  |  |  | 
4 | COC(=O)[C@@H]1C2C[C@H](OC)[C@H](C[C@@H]1OC(=O)c1ccccc1)N2C (mixture of isomers) | 68 µM | 98 µM |  |  |  | 
5 | COC(=O)[C@H]1[C@@H](OC(=O)c2ccccc2)C[C@@H]2CC[C@H]1N2C [COCAINE] | 0.32 µM | 0.28 µM | 0.336 µM |  |  | 
6 | COC(=O)[C@H]1C2[C@@H](OC)C[C@H](C[C@@H]1OC(=O)c1ccccc1)N2C (mixture of isomers) | 200 µM | 54 µM |  | 0.501 µM | 0.936 µM | 
7 | COC(=O)[C@H]1C2C[C@H](OC)[C@H](C[C@@H]1OC(=O)c1ccccc1)N2C (mixture of isomers) | 510 µM | 190 µM |  |  |  | 1.02 µM

— ChEMBL document CHEMBL1126548, “Methoxylation of cocaine reduces binding affinity and produces compounds of differential binding and dopamine uptake inhibitory activity: discovery of a weak cocaine "antagonist"” (J Med Chem, 1993)
